Results published in US5552267A, “Solution for prolonged organ preservation” (priority 1994, dated 1996).

Experiments:
nitric oxide synthase = test: cardiac nitric oxide synthase activity (L-arginine to L-citrulline conversion); assay type: biochemical, rat; conditions: LR with vs without supplement, 12 h
Description: Hearts were either freshly explanted, preserved, or preserved/transplanted (with 10 min. of reperfusion), after which they were excised. The coronary arteries were flushed with physiologic saline, the atria and great vessels excised, and the ventricular cavities rinsed free of residual intracavitary blood. Samples were flash-frozen in liquid nitrogen and stored at -80° C. until the time of assay. Extracts were prepared by homogenizing tissue at 4° C. in the presence of protease inhibitors (aprotinin, epsilon amino caproic acid, PMSF, pepstatin A, and chymostatin), and centrifuging (20,000 rpm×20 min) to remove cellular debris. The extract (20 μg of protein by the method of Lowry^15) was incubated for 60 min. in the presence of CaCl2 (10 μM), FAD (8 μM), dithiothreitol (60 μM)(Sigma), tetrahydrobiopterin (8 μM; B. Schirks, Switzerland), and ^3 H-L-arginine (0.072 μM, 5 μCi;, Amersham, Arlington Heights, Ill.). Thin layer chromatography (TLC) was performed with 5 μl of the reaction mix, using methanol:chloroform:water:ammonium hydroxide (9:2:8:3) as the running solvent. Silica gel TLC plates (Sigma) were stained with ninhydrin (1 g/500 ml ethanol) and the spots corresponding to L-arginine, L-ornithine, and L-citrulline cut out and counted. […] Results are expressed as the mean ±SEM of 3 determinations.

[1] = test system: cGMP-dependent protein kinase; conditions: vs cAMP-dependent protein kinase; cited from earlier work
[2] = test system: nitric oxide production in heart; test: direct measurement of coronary vascular and endocardial NO with porphyrinic microsensor; parameters: species or system rat; conditions: transplanted hearts
Description: Direct measurement of coronary vascular and endocardial nitric oxide synthesis were made with a porphyrinic microsensor^13 using differential pulse voltammetry or amperometry. Rat hearts were explanted and preserved as described above, and studied fresh (no preservation/transplantation) or after hypothermic preservation in lactated Ringer's (LR) solution, heterotopic transplantation, and 10 minutes of reperfusion. The coronary vasculature was flushed free of blood with LR followed by 4 ml of LR supplemented with L-Arg (2 mM) and bradykinin ([…], Sigma), which was recycled (1 ml/min) through the coronary vasculature by flushing down the cross-clamped aortic root. Aliquots of perfusate were immediately transferred to an anaerobic environment for measurements and compared to an aqueous nitric oxide reference. Differential pulse voltammograms were obtained using a sensor (working electrode), saturated calomel electrode reference, and platinum wire-auxiliary electrode, with a pulse amplitude of 40 mV. Endocardial NO was measured by implanting the sensor in the septal endocardium of a freshly explanted or preserved/transplanted heart, and after the baseline stabilization, […] bradykinin was applied and NO release continuously monitored by amperometry at constant potential of 0.63 V.

heart [3] = test: heterotopic rat cardiac transplant, nitric oxide series, graft survival/score; assay type: in vivo, rat (male Sprague-Dawley); conditions: for graft survival: NTG 0.1 mg/ml where added
Excerpt: Male Sprague-Dawley rats (350 grams, Camm Research, Wayne, N.J.) were used, and harvest, preservation, and transplantation procedures performed as described^8. Preservation solutions included lactated Ringer's (LR) solution (Baxter, Edison, N.J.), or LR supplemented with nitroglycerin (DuPont, Wilmington, Del.), sodium nitroprusside (Roche Laboratories, Nutley, N.J.), N^G -monomethyl-L-arginine (L-NMMA; Chembiochem, Salt Lake City, Utah), L-arginine (Sigma Chemical Co., St. Louis, Mo.), or 8-bromoguanosine3',5'monophosphate (8-Br-cGMP; Sigma). Components were combined within 4 hrs of donor cardiectomy, and preservation solutions were kept at 4° C. All of these solutions were at the pH of LR (6.6). University of Wisconsin solution (UW) was purchased from Dupont. […] Ten minutes after removal of the cross-clamp, an electrocardiogram was taken (Grass Polygraph, Quincy, Mass.) and the heart was judged by the same blinded investigators throughout based on the presence/absence of regular contractions and a transplant score (0-5, worst-best, respectively) employing the following criteria: contraction (poor=0, average=1, vigorous=2), tissue turgor (hard=0, average=1, soft=2), and color (dusky=0, pink=1).
Graft survival data was analyzed by contingency analysis (chi-square). Transplant scores, microsphere perfusion, myeloperoxidase, NO synthase, and platelet serotonin release data were analyzed using ANOVA for unpaired variables with the Tukey test used to discriminate significant differences between group means. Values are expressed as means ±SEM, with a p<0.05 considered statistically significant.

[4] = test system: cardiac graft vasculature; test: perfusion of donor grafts by microspheres, nitric oxide series; assay type: in vivo, rat; conditions: 12 h preservation in LR
Description: Ten minutes after restoration of blood flow, 0.5 ml of 10 μm diameter microspheres (10^6 /ml) (E-Z Trac, Los Angeles, Calif.) was injected into the donor aortic root. Deposition of microspheres in ventricular tissue was assessed following alkaline hydrolysis, washing, and counting of microspheres as described^8, with results expressed as number of spheres per (40×) field per gram of ventricle. A minimum of ten fields were counted and the mean ±SEM is reported.

[5] = test system: platelet accumulation in lung graft; test: graft platelet accumulation (111Indium-labelled platelets); assay type: in vivo, rat; conditions: NTG 0.1 mg/mL in EC, 6 h
Description: Graft platelet accumulation was determined using ^111 Indium-labelled platelets, prepared as described^39. Blood (5.0 mL) was taken from a gender/strain matched donor rat and heparinized (2500 units). Platelets were isolated by differential centrifugation, first at 300 g for 5 minutes to obtain platelet-rich plasma, which was then washed 3 times at 2,000 g for 15 minutes in 10 ml of acid-citrate-dextrose-anticoagulant (ACD-A; citric acid 38 mM, sodium citrate 75 mM, glucose 135 mM). The pellet was suspended in 5 mL of ACD-A, centrifuged at 100 g for 5 minutes to remove contaminating red blood cells, and the supernatant collected. ^111 Indium oxyquinoline (70 μL of 1 mCi/mL, Amersham Mediphysics, Arlington Heights, Ill.) was added with gentle shaking for 30 minutes at room temperature. […] One minute following platelet infusion (immediately prior to reperfusion), 0.5 mL of blood was taken from the left atrium to determine blood radioactivity, to ascertain blood platelet concentrations to normalize for variations in blood loss during surgery. Five minutes following reperfusion, the native right pulmonary artery was ligated, the graft was removed 10 minutes thereafter, and ^111 Indium-platelet deposition quantified by gamma counting. Platelet accumulation was expressed as the ratio of graft radioactivity to blood radioactivity normalized to dry weight.

[6] = test system: nitric oxide in expired air; conditions: in vivo; cited from earlier work
heart [7] = conditions: in vivo; cited from earlier work

Row | SMILES | nitric oxide synthase activity after transplantation (nitric oxide synthase) | times more potent at stimulating cGMP- than cAMP-dependent protein kinase [1] | effect on NO levels [2] | concentration of maximal benefit (heart [3]; 8-Br-cGMP dose-response, 12 h in LR) | effect on graft preservation (words) (heart [3]; 12 h in LR) | effect on graft preservation (words) (heart [3]; 12 h in LR, listed as 8-bromo-cGMP) | graft blood flow [4] | graft platelet accumulation [5] | nitric oxide in expired air [6] | graft survival (heart [3]; 24-28 h in UW) | graft survival (heart [3]; 12 h in LR) | concentration of maximal effect (heart [3]; NTG dose-response, 12 h in LR) | effect in cardiac ischemia models (heart [7])
1 | Nc1nc2c(nc(Br)n2[C@@H]2O[C@@H]3COP(=O)(O)O[C@H]3[C@H]2O)c(=O)[nH]1 [8-Br-cGMP, 8-bromoguanosine-3'5' cyclic monophosphate] | similar | 500 times | did not alter NO levels | 0.5 mM | enhanced cardiac preservation in a dose-dependent manner | enhanced graft survival | enhanced blood flow |  |  |  |  |  | 
2 | O=[N+]([O-])OCC(CO[N+](=O)[O-])O[N+](=O)[O-] [NTG, nitroglycerin] | similar |  |  |  |  |  | enhanced blood flow | significant decline in both neutrophil and platelet accumulation | increase nitric oxide in expired air | 100% | 92% | 0.1 mg/mL | blunt myocardial injury and neutrophil accumulation during reperfusion
